Assay results taken from US7012088B2, “Indolone oxazolidinones and derivatives thereof” (Pharmacia & Upjohn Company, priority 2003, dated 2006).
Values after ≈ are worked out from the molar mass of the structure shown.

Legend:
S. aureus SAUR 9213 = assay: MIC by standard agar dilution method, S. aureus; assay type: cell-based; details: Staphylococcus aureus, SAUR9213, Mueller Hinton agar, overnight at 35° C.
Description: (§1) The oxazolidinone antibacterial agents of this invention have useful activity against a variety of organisms. The in vitro activity of compounds of this invention can be assessed by standard testing procedures such as the determination of minimum inhibitory concentration (MIC) by agar dilution as described in “Approved Standard. Methods for Dilution Antimicrobial Susceptibility Tests for Bacteria That Grow Aerobically”, 3rd. ed., published 1993 by the National Committee for Clinical Laboratory Standards, Villanova, Pa., USA. The in vitro MICs of test compounds were determined by a standard agar dilution method. A stock drug solution of each analog was prepared in the preferred solvent, usually DMSO:H2O (1:3). Serial 2-fold dilutions of each sample are made using 1.0 ml aliquots of sterile distilled water. To each 1.0 ml aliquot of drug was added 9 ml of molten Mueller Hinton agar medium. The drug-supplemented agar was mixed, poured into 15×100 mm petri dishes, and allowed to solidify and dry prior to inoculation. Vials of each of the test organisms are maintained frozen in the vapor phase of a liquid nitrogen freezer. Test cultures are grown overnight at 35° C. on the medium appropriate for the organism. Colonies are harvested with a sterile swab, and cell suspensions are prepared in Trypticase Soy broth (TSB) to equal the turbidity of a 0.5 McFarland standard. A 1:20 dilution of each suspension was made in TSB. The plates containing the drug supplemented agar are inoculated with a 0.001 ml drop of the cell suspension using a Steers replicator, yielding approximately 10^4 to 10^5 cells per spot. The plates are incubated overnight at 35° C. Following incubation the Minimum Inhibitory Concentration (MIC μg/ml), the lowest concentration of drug that inhibits visible growth of the organism, was read and recorded.

S. pneumoniae SPNE 9912 = assay: MIC by standard agar dilution method, S. pneumoniae; assay type: cell-based; details: Streptococcus pneumoniae, SPNE9912, Mueller Hinton agar, overnight at 35° C.
Description: as §1

SMILES | MIC (S. aureus SAUR 9213) | MIC (S. pneumoniae SPNE 9912) | melting point
CCN1C(=O)C(F)(F)c2cc(N3C[C@H](C(=O)NC)OC3=O)ccc21 [Example 4, (5R)-(−)-3-(3,3-Difluoro-2,3-dihydro-1-ethyl-2-oxo-1H-indol-5-yl)-N-methyl-2-oxo-5-oxazolidinecarboxamide] | 8 µg/mL (≈ 23.6 µM) | 4 µg/mL (≈ 11.8 µM) | 211 to 213 °C
CNC(=O)[C@H]1CN(c2ccc3c(c2)C(F)(F)C(=O)N3C)C(=O)O1 [Example 1, (5R)-(−)-3-(3,3-Difluoro-2,3-dihydro-1-methyl-2-oxo-1H-indol-5-yl)-N-methyl-2-oxo-5-oxazolidinecarboxamide] | 2 µg/mL (≈ 6.15 µM) | 2 µg/mL (≈ 6.15 µM) | 242.5 to 245 °C
CCN1C(=O)C(F)(F)c2cc(N3C[C@H](C(N)=O)OC3=O)ccc21 [Example 3, (5R)-(−)-3-(3,3-difluoro-2,3-dihydro-1-ethyl-2-oxo-1H-indol-5-yl)-2-oxo-5-oxazolidinecarboxamide] | 8 µg/mL (≈ 24.6 µM) | 4 µg/mL (≈ 12.3 µM) | 201 to 203 °C
CCN1C(=O)C(F)(F)c2cc(N3C[C@H](CNC(C)=O)OC3=O)ccc21 [Example 6, N-[[(5S)-(−)-3-(3,3-Difluoro-2,3-dihydro-1-ethyl-2-oxo-1H-indol-5-yl)-2-oxo-5-oxazolidinyl]methyl]acetamide] | 8 µg/mL (≈ 22.6 µM) | 2 µg/mL (≈ 5.66 µM) | 139 to 141 °C
CC(=O)NC[C@H]1CN(c2ccc3c(c2)C(F)(F)C(=O)N3C)C(=O)O1 [Example 5, N-[[(5S)-(−)-3-(3,3-Difluoro-2,3-dihydro-1-methyl-2-oxo-1H-indol-5-yl)-2-oxo-5-oxazolidinyl]methyl]acetamide] | 2 µg/mL (≈ 5.89 µM) | 1 µg/mL (≈ 2.95 µM) | 125 to 127 °C
CN1C(=O)C(F)(F)c2cc(N3C[C@H](C(N)=O)OC3=O)ccc21 [Example 2, (5R)-(−)-3-(3,3-difluoro-2,3-dihydro-1-methyl-2-oxo-1H-indol-5-yl)-2-oxo-5-oxazolidinecarboxamide] | 2 µg/mL (≈ 6.43 µM) | 1 to 2 µg/mL (≈ 3.21 to 6.43 µM) | 274 to 277 °C (dec.)
